pKi: −log10 of the molar value. Converted amounts (≈) assume the structure as drawn.
Tests used:
[1] = Selectivity ratio of Ki for cloned human GABA alpha-2-beta-3-gamma-2 receptor expressed in insect SF9 cells to Ki for cloned human GABA alpha-5-beta-3-gamma-2 receptor expressed in insect SF9 cells
[2] = molecular target: GABA A receptor alpha-5/beta-3/gamma-2 (Rattus norvegicus) (UniProt P18508+P19969+P63079); experiment: Inverse agonist activity at rat GABA alpha-5-beta-3-gamma-2 receptor expressed in HEK293 cells by electrophysiology assay relative to GABA; format: functional, cell-based
[3] = Selectivity ratio of Ki for cloned human GABA alpha-3-beta-3-gamma-2 receptor expressed in insect SF9 cells to Ki for cloned human GABA alpha-5-beta-3-gamma-2 receptor expressed in insect SF9 cells
[4] = molecular target: T1, GABA-A receptor; alpha-5/beta-3/gamma-2 (Homo sapiens, UniProt P18507+P28472+P31644); experiment: Displacement of [3H]Flumazenil from human GABA alpha-5-beta-3-gamma-2 receptor expressed in insect SF9 cells
T1 sequence (P18507 whole entry): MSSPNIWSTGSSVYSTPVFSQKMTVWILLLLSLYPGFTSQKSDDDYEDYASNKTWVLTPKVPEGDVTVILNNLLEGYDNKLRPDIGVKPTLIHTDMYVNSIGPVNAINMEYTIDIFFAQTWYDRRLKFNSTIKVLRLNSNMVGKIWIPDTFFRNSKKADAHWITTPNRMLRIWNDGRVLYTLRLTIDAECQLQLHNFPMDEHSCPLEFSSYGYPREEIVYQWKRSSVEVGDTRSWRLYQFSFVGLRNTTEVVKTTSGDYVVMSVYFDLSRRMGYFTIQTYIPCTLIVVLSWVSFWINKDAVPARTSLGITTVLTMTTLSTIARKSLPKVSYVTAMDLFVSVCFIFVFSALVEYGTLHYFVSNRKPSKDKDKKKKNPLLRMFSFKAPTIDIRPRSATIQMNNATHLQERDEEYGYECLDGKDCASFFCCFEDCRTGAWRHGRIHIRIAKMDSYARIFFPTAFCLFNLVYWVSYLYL
T1 sequence (P28472 whole entry): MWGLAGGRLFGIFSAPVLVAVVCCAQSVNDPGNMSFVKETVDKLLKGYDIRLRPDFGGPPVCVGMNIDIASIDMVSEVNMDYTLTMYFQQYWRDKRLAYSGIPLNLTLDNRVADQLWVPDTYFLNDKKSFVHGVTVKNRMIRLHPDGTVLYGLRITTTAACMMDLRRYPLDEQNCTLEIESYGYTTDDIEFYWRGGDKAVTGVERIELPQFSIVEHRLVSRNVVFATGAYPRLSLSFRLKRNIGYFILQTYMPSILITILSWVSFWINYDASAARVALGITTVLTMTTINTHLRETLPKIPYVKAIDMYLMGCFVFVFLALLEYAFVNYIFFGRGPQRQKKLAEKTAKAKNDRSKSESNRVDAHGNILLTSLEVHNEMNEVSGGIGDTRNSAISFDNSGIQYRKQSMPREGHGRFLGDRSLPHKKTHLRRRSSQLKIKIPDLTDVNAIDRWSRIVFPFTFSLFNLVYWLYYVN
T1 sequence (P31644 whole entry): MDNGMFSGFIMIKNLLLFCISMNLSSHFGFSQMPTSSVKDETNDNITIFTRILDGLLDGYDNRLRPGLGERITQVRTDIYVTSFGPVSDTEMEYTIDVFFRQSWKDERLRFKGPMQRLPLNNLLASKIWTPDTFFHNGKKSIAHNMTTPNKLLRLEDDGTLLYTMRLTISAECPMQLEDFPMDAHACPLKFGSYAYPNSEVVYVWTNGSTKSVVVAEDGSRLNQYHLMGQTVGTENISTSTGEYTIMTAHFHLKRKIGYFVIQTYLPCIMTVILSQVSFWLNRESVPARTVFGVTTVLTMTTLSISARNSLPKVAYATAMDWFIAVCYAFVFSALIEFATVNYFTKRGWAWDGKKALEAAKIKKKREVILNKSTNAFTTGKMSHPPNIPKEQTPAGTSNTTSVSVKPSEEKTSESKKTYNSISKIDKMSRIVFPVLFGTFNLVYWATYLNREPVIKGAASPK

[5] = Selectivity ratio of Ki for cloned human GABA alpha-1-beta-3-gamma-2 receptor expressed in insect SF9 cells to Ki for cloned human GABA alpha-5-beta-3-gamma-2 receptor expressed in insect SF9 cells
[6] = Clearance in rat; format: ADME, organism-based; details: in vivo
[7] = Permeability by PAMPA; format: ADME; details: read-out: permeability
[8] = Volume of distribution at steady state in rat; format: ADME, organism-based; details: in vivo, read-out: Vdss
[9] = tested on: HEK293; experiment: Selectivity ratio of Ki for cloned human GABA alpha-2-beta-3-gamma-2 receptor expressed in HEK293 cells to Ki for cloned human GABA alpha-5-beta-3-gamma-2 receptor expressed in HEK293 cells; format: cell-based
[10] = tested on: HEK293; experiment: Selectivity ratio of Ki for cloned human GABA alpha-3-beta-3-gamma-2 receptor expressed in HEK293 cells to Ki for cloned human GABA alpha-5-beta-3-gamma-2 receptor expressed in HEK293 cells; format: cell-based
[11] = Lipophilicity, log D at pH 7.4; format: physicochemical; details: buffer
[12] = molecular target: T1, GABA-A receptor; alpha-5/beta-3/gamma-2; experiment: Displacement of [3H]Flumazenil from cloned human GABA alpha-5-beta-3-gamma-2 receptor expressed in HEK293 cells; format: cell-based
[13] = Solubility by lypophlisation solubility assay; format: physicochemical
[14] = tested on: HEK293; experiment: Selectivity ratio of Ki for cloned human GABA alpha-1-beta-3-gamma-2 receptor expressed in HEK293 cells to Ki for cloned human GABA alpha-5-beta-3-gamma-2 receptor expressed in HEK293 cells; format: cell-based
[15] = Oral bioavailability in rat; format: ADME, organism-based; details: in vivo
[16] = Half life in rat; format: ADME, organism-based; details: in vivo
[17] = molecular target: GABA-A receptor; alpha-1/beta-2/gamma-2 (Rattus norvegicus) (UniProt P18508+P62813+P63138); experiment: Inverse agonist activity at rat GABA alpha-1-beta-3-gamma-2 receptor expressed in HEK293 cells by electrophysiology assay relative to GABA; format: functional, cell-based
[18] = molecular target: T2, GABA-A receptor; alpha-3/beta-3/gamma-2 (Homo sapiens, UniProt P18507+P28472+P34903); experiment: Displacement of [3H]Flumazenil from cloned human GABA alpha-3-beta-3-gamma-2 receptor expressed in HEK293 cells; format: cell-based
T2 sequence (P18507 whole entry): T1 sequence (P18507 whole entry)
T2 sequence (P28472 whole entry): T1 sequence (P28472 whole entry)
T2 sequence (P34903 whole entry): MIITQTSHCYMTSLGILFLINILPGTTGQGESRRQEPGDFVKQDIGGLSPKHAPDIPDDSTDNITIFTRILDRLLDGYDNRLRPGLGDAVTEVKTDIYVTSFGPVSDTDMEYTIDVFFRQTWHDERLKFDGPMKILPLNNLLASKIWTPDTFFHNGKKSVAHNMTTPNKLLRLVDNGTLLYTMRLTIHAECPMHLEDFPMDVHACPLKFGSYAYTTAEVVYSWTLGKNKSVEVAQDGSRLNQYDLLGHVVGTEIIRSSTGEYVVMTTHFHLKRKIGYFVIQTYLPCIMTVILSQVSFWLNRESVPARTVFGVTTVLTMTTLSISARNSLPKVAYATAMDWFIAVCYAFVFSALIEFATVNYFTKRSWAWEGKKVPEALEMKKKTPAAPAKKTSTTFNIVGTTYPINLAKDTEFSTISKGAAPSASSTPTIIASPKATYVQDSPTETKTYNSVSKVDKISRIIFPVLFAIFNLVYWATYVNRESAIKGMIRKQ

[19] = molecular target: GABA A receptor alpha-2/beta-2/gamma-2 (Rattus norvegicus) (UniProt P18508+P23576+P63138); experiment: Inverse agonist activity at rat GABA alpha-2-beta-3-gamma-2 receptor expressed in HEK293 cells by electrophysiology assay relative to GABA; format: functional, cell-based
[20] = molecular target: Gamma-aminobutyric acid receptor subunit alpha-3 (Rattus norvegicus) (UniProt P20236); experiment: Inverse agonist activity at rat GABA alpha-3-beta-3-gamma-2 receptor expressed in HEK293 cells by electrophysiology assay relative to GABA; format: functional, cell-based
Gamma-aminobutyric acid receptor subunit alpha-3 (Rattus norvegicus), sequence (P20236 whole entry): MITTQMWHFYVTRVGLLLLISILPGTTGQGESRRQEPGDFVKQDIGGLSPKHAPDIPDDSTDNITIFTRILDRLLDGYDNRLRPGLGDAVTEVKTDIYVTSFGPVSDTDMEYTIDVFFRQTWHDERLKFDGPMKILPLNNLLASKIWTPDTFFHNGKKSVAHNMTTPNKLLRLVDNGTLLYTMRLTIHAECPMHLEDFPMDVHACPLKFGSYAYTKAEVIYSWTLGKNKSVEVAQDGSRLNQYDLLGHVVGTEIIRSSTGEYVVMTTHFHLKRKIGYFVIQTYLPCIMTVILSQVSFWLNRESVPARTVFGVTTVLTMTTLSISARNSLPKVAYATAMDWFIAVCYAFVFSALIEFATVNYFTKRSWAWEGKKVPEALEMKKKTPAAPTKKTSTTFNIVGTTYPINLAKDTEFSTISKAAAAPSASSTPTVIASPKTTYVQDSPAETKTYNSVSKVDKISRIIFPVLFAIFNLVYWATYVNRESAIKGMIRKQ

[21] = molecular target: T3, GABA-A receptor; alpha-1/beta-3/gamma-2 (Homo sapiens, UniProt P14867+P18507+P28472); experiment: Displacement of [3H]Flumazenil from cloned human GABA alpha-1-beta-3-gamma-2 receptor expressed in HEK293 cells; format: cell-based
T3 sequence (P14867 whole entry): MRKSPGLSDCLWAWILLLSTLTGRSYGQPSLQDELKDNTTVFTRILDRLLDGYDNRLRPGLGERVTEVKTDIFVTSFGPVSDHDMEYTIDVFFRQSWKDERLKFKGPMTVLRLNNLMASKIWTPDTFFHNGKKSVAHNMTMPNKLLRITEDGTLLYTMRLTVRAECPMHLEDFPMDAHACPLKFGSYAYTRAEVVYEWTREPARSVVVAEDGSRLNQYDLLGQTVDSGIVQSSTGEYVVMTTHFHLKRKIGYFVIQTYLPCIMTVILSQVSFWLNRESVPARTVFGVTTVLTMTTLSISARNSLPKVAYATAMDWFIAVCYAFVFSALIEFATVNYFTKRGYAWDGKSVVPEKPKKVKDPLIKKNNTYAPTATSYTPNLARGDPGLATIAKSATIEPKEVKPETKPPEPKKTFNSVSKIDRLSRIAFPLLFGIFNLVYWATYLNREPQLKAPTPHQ
T3 sequence (P18507 whole entry): T1 sequence (P18507 whole entry)
T3 sequence (P28472 whole entry): T1 sequence (P28472 whole entry)

[22] = molecular target: T4, GABA-A receptor; alpha-2/beta-3/gamma-2 (Homo sapiens, UniProt P18507+P28472+P47869); experiment: Displacement of [3H]Flumazenil from cloned human GABA alpha-2-beta-3-gamma-2 receptor expressed in HEK293 cells; format: cell-based
T4 sequence (P18507 whole entry): T1 sequence (P18507 whole entry)
T4 sequence (P28472 whole entry): T1 sequence (P28472 whole entry)
T4 sequence (P47869 whole entry): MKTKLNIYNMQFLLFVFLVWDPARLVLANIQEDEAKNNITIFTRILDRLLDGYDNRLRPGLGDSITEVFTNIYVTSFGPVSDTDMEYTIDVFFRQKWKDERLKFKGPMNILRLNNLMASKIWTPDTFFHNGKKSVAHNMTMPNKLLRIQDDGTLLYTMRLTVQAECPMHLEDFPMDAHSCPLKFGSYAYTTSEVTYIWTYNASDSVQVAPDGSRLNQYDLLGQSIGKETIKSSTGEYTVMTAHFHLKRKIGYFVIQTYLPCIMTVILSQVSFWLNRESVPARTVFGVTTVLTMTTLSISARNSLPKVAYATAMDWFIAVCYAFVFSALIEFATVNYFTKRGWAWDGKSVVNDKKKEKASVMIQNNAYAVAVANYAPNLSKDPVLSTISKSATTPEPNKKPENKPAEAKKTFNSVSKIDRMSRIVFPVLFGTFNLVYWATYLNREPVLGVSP

[23] = molecular target: GABA-A receptor; alpha-5/beta-3/gamma-2 (Homo sapiens) (UniProt P18507+P28472+P31644); experiment: Inverse agonist activity at human GABA alpha-5-beta-3-gamma-2 receptor expressed in Xenopus laevis oocyts by electrophysiology assay relative to GABA; format: functional

## CCC(=O)c1ncn2c1Cn1ncnc1-c1cc(Cl)ccc1-2
[1]
  Ratio Ki: 11
[2]
  Efficacy: -38%
[3]
  Ratio Ki: 8
[4]
  pKi: 8.59
[5]
  Ratio Ki: 12

## Fc1ccc2c(c1)-c1ncnn1Cc1cncn1-2
[1]
  Ratio Ki: 4
[2]
  Efficacy: -45%
[3]
  Ratio Ki: 3
[4]
  pKi: 8.00
[5]
  Ratio Ki: 12

## Cc1ncn2c1Cn1ncnc1-c1cc(Br)ccc1-2
[6]
  clearance: 0.6 mL/min/kg
[7]
  Papp: 7.6 ×10⁻⁶ cm/s
[8]
  Vd: 0.4 L/kg
[9]
  Ratio Ki: 30
[2]
  Efficacy: -42%
[10]
  Ratio Ki: 21
[11]
  logD: 1.6
[12]
  pKi: 8.21
[13]
  solubility: 78 µg/mL (≈ 247 µM)
[14]
  Ratio Ki: 22
[15]
  bioavailability: 80%
[16]
  half-life: 7.7 h
[17]
  Efficacy: -9%

## c1ccc2c(c1)-c1ncnn1Cc1cncn1-2
[1]
  Ratio Ki: 0.05
[2]
  Efficacy: -37%
[3]
  Ratio Ki: 0.06
[5]
  Ratio Ki: 15

## N#Cc1ncn2c1Cn1ncnc1-c1cc(Cl)ccc1-2
[1]
  Ratio Ki: 11
[2]
  Efficacy: -31%
[3]
  Ratio Ki: 9
[4]
  pKi: 8.19
[5]
  Ratio Ki: 7

## Fc1ccc2c(c1)-c1ncnn1Cc1c(Cl)ncn1-2
[1]
  Ratio Ki: 4
[2]
  Efficacy: -33%
[3]
  Ratio Ki: 3
[4]
  pKi: 9.52
[5]
  Ratio Ki: 3

## FC(F)c1ncn2c1Cn1ncnc1-c1cc(Cl)ccc1-2
[6]
  clearance: 3.8 mL/min/kg
[18]
  pKi: 7.32
[7]
  Papp: 6.3 ×10⁻⁶ cm/s
[19]
  Efficacy: 2%
[20]
  Efficacy: 21%
[8]
  Vd: 0.3 L/kg
[2]
  Efficacy: -18%
[11]
  logD: 2
[12]
  pKi: 8.25
[21]
  pKi: 7.28
[13]
  solubility: 58 µg/mL (≈ 189 µM)
[22]
  pKi: 7.09
[15]
  bioavailability: 87%
[16]
  half-life: 0.9 h
[17]
  Efficacy: -20%

## CCOC(=O)c1ncn2c1Cn1ncnc1-c1cc(F)ccc1-2
[1]
  Ratio: 1
[2]
  Efficacy: -16%
[3]
  Ratio Ki: 1
[4]
  pKi: 9.70
[5]
  Ratio Ki: 1

## Brc1ccc2c(c1)-c1ncnn1Cc1c(-c3cccs3)ncn1-2
[9]
  Ratio Ki: 22
[10]
  Ratio Ki: 16
[12]
  pKi: 8.40
[23]
  Efficacy: -10%
[14]
  Ratio Ki: 27

## Cc1ncn2c1Cn1ncnc1-c1cc(C(F)F)ccc1-2
[9]
  Ratio Ki: 62
[10]
  Ratio Ki: 30
[12]
  pKi: 8.66
[23]
  Efficacy: -45%
[14]
  Ratio Ki: 29

## Cn1nccc1-c1ncn2c1Cn1ncnc1-c1cc(Br)ccc1-2
[9]
  Ratio Ki: 35
[10]
  Ratio Ki: 22
[12]
  pKi: 8.01
[23]
  Efficacy: -33%
[14]
  Ratio Ki: 26

Reference: ChEMBL document CHEMBL1154288, “The discovery and unique pharmacological profile of RO4938581 and RO4882224 as potent and selective GABAA alpha5 inverse agonists for the treatment of cognitive dysfunction” (Bioorg Med Chem Lett, 2009)
